The values below are quoted from earlier work in patent publication US20240307352A1, “SACUBITRIL VALSARTAN SODIUM SUSTAINED-RELEASE COMPOSITION, AND PREPARATION METHOD THEREFOR AND USE THEREOF” (SHANGHAI AURORA BIOTECHNOLOGY CO., LTD., priority 2021, published 2024).

The subject of the data set is patients with heart failure with reduced ejection fraction (HF-REF). The conditions noted are these: compared to enalapril-treated counterpart.

“octadecasodium hexa(4-{[(1S,3R)-1-([1,1′-biphenyl)-4-ylmethyl)-4-ethoxy-3-methyl-4-oxobutyl]amino}-4-oxobutyric acid) hexa(N-pentanoyl-N-{[2′-(1H-tetrazol-5-yl)biphenyl-4-yl]methyl}-L-valine)-hydrate (1/15) [LCZ696]”: the “Reduction in death risk” value is given as 20% and the “Reduction in hospitalization risk” value is reported as 21%.
